# Structures can show the parent of a compound that is named as a salt.
# Columns and labels:
# human full-lengt MKNK1 = biological target: T1, human full-lengt MKNK1 (Homo sapiens, UniProt Q9BUB5, T385D); assay: MKNK1 kinase assay (MKNK1 TR-FRET assay); type: biochemical; conditions: ATP final conc. 10 μM, 15 min preincubation, 45 min reaction at 22° C.
# T1 construct: purchased Carna Biosciences 02-145; host or cells: insect cells (baculovirus expression system)
# Description: MKNK1-inhibitory activity of compounds of the present invention was quantified employing the MKNK1 TR-FRET assay as described in the following paragraphs.
# (§1) A recombinant fusion protein of Glutathione-S-Transferase (GST, N-terminally) and human full-lengt MKNK1 (amino acids 1-424 and T344D of accession number BAA 19885.1), expressed in insect cells using baculovirus expression system and purified via glutathione sepharose affinity chromatography, was purchased from Carna Biosciences (product no 02-145) and used as enzyme. As substrate for the kinase reaction the biotinylated peptide biotin-Ahx-IKKRKLTRRKSLKG (C-terminus in amide form) was used which can be purchased e.g. form the company Biosyntan (Berlin-Buch, Germany).
# (§2) For the assay 50 nL of a 100 fold concentrated solution of the test compound in DMSO was pipetted into a black low volume 384 well microtiter plate (Greiner Bio-One, Frickenhausen, Germany), 2 μL of a solution of MKNK1 in aqueous assay buffer [50 mM HEPES pH 7.5, 5 mM magnesium chloride, 1.0 mM dithiothreitol, 0.005% (v/v) Nonidet-P40 (Sigma)] was added and the mixture was incubated for 15 min at 22° C. to allow pre-binding of the test compounds to the enzyme before the start of the kinase reaction. Then the kinase reaction was started by the addition of 3 μL of a solution of adenosine-tri-phosphate (ATP, 16.7 μM=>final conc. in the 5 μL assay volume is 10 μM) and substrate (0.1 μM=>final conc. in the 5 μL assay volume is 0.06 μM) in assay buffer and the resulting mixture was incubated for a reaction time of 45 min at 22° C. The concentration of MKNK1 was adjusted depending of the activity of the enzyme lot and was chosen appropriate to have the assay in the linear range, typical concentrations were in the range of 0.05 μg/ml. The reaction was stopped by the addition of 5 μL of a solution of TR-FRET detection reagents (5 nM streptavidine-XL665 [Cisbio Bioassays, Codolet, France] and 1 nM anti-ribosomal protein S6 (pSer236)-antibody from Invitrogen [#44921G] and 1 nM LANCE EU-W1024 labeled ProteinG [Perkin-Elmer, product no. AD0071]) in an aqueous EDTA-solution (100 mM EDTA, 0.1% (w/v) bovine serum albumin in 50 mM HEPES pH 7.5).
# The resulting mixture was incubated for 1 h at 22° C. to allow the formation of complex between the phosphorylated biotinylated peptide and the detection reagents. Subsequently the amount of phosphorylated substrate was evaluated by measurement of the resonance energy transfer from the Eu-chelate to the streptavidine-XL. Therefore, the fluorescence emissions at 620 nm and 665 nm after excitation at 350 nm were measured in a TR-FRET reader, e.g. a Rubystar (BMG Labtechnologies, Offenburg, Germany) or a Viewlux (Perkin-Elmer). The ratio of the emissions at 665 nm and at […] was taken as the measure for the amount of phosphorylated substrate. The data were normalised (enzyme reaction without inhibitor=0% inhibition, all other assay components but no enzyme=100% inhibition). Usually the test compounds were tested on the same microtiterplate in 11 different concentrations in the range of 20 μM to 0.1 nM (20 μM, 5.9 μM, 1.7 μM, 0.51 μM, 0.15 μM, 44 nM, 13 nM, 3.8 nM, 1.1 nM, 0.33 nM and 0.1 nM, the dilution series prepared separately before the assay on the level of the 100 fold concentrated solutions in DMSO by serial 1:3.4 dilutions) in duplicate values for each concentration and […] were calculated by a 4 parameter fit.
# human full-length MKNK1 = biological target: T2, human full-length MKNK1 (Homo sapiens, UniProt Q9BUB5, T385D); assay: MKNK1 kinase high ATP assay (TR-FRET-based); type: biochemical; conditions: ATP final conc. 2 mM, 15 min preincubation, 30 min reaction at 22° C.
# T2 construct: purchased Carna Biosciences 02-145; host or cells: insect cells (baculovirus expression system)
# Method: MKNK1 Kinase High ATP Assay
# MKNK1-inhibitory activity at high ATP of compounds of the present invention after their preincubation with MKNK1 was quantified employing the TR-FRET-based MKNK1 high ATP assay as described in the following paragraphs.
# as §1, with “human full-length” for “human full-lengt”, “was used,” for “was used”, “e.g. from” for “e.g. form”
# as §2, with “3.3 mM=>final” for “16.7 μM=>final”, “2 mM)” for “10 μM)”, “30” for “45”, “0.003 μg/mL.” for “0.05 μg/ml.”
# The resulting mixture was incubated for 1 h at 22° C. to allow the formation of complex between the phosphorylated biotinylated peptide and the detection reagents. Subsequently the amount of phosphorylated substrate was evaluated by measurement of the resonance energy transfer from the Eu-chelate to the streptavidine-XL. Therefore, the fluorescence emissions at 620 nm and 665 nm after excitation at 350 nm were measured in a TR-FRET reader, e.g. a Rubystar (BMG Labtechnologies, Offenburg, Germany) or a Viewlux (Perkin-Elmer). The ratio of the emissions at 665 nm and at […] was taken as the measure for the amount of phosphorylated substrate. The data were normalised (enzyme reaction without inhibitor=0% inhibition, all other assay components but no enzyme=100% inhibition).
# T1 sequence (Q9BUB5 1-424 isoform Q9BUB5-2 T344D): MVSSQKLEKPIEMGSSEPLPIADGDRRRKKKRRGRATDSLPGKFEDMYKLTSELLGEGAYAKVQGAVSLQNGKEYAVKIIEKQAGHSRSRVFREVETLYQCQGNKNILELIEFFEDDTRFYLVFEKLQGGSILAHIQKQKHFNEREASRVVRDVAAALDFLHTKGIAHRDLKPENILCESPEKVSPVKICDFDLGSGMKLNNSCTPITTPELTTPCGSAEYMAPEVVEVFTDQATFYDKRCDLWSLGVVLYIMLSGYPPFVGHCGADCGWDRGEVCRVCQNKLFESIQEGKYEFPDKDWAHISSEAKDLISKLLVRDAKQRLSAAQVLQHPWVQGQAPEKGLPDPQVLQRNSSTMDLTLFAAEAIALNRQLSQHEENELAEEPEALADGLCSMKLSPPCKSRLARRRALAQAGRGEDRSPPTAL
# T2 sequence (Q9BUB5 1-424 isoform Q9BUB5-2 T344D): as above
IC50 (human full-lengt MKNK1) [nM],IC50 (human full-length MKNK1) [nM],SMILES
7,13,"N[C@H]1C[C@H](Oc2ccc3ncc(-c4cc5ncccc5o4)n3n2)C1 [Example 28, trans-3-{[3-(Furo[3,2-b]pyridin-2-yl)imidazo[1,2-b]pyridazin-6-yl]oxy}cyclobutanamine]"
17,43,"COc1nccc2oc(-c3cnc4ccc(O[C@@H]5CC[C@H](N)C5)nn34)cc12 [Example 18, (1S,3R)-3-{[3-(4-Methoxyfuro[3,2-c]pyridin-2-yl)imidazo[1,2-b]pyridazin-6-yl]-oxy}cyclopentanamine]"
8,19,"COc1nccc2oc(-c3cnc4ccc(OCC(C)CN)nn34)cc12 (stereo not drawn) [Example 16, 3-{[3-(4-Methoxyfuro[3,2-c]pyridin-2-yl)imidazo[1,2-b]pyridazin-6-yl]oxy}-2-methylpropan-1-amine]"
5,16,"N[C@H]1C[C@H](Oc2ccc3ncc(-c4cc5ccncc5o4)n3n2)C1 [Example 13, trans-3-{[3-(Furo[2,3-c]pyridin-2-yl)imidazo[1,2-b]pyridazin-6-yl]oxy}-cyclobutanamine salt with formic acid]"
16,28,"C[C@H](N)COc1ccc2ncc(-c3cc4c(OCC5CC5)nccc4o3)n2n1 [Example 25, (2S)-1-({3-[4-(Cyclopropylmethoxy)furo[3,2-c]pyridin-2-yl]imidazo[1,2-b]-pyridazin-6-yl}oxy)propan-2-amine]"
3,5,"COc1nccc2oc(-c3cnc4ccc(O[C@H]5C[C@H](N)C5)nn34)cc12 [Example 2, trans-3-{[3-(4-Methoxyfuro[3,2-c]pyridin-2-yl)imidazo[1,2-b]pyridazin-6-yl]-oxy}cyclobutanamine]"
153,259,"COc1nccc2oc(-c3cnc4ccc(OCC5(CN)COC5)nn34)cc12 [Example 27, 1-[3-({[3-(4-Methoxyfuro[3,2-c]pyridin-2-yl)imidazo[1,2-b]pyridazin-6-yl]-oxy}methyl)oxetan-3-yl]methanamine]"
5,15,"C[C@H](N)COc1ccc2ncc(-c3cc4c(OCC(C)(C)C)nccc4o3)n2n1 [Example 34, (2S)-1-({3-[4-(2,2-Dimethylpropoxy)furo[3,2-c]pyridin-2-yl]imidazo[1,2-b]-pyridazin-6-yl}oxy)propan-2-amine]"
–,19,"C[C@H](N)COc1ccc2ncc(-c3cc4c(OC5CCC5)nccc4o3)n2n1 [Example 41, (2S)-1-({3-[4-(Cyclobutyloxy)furo[3,2-c]pyridin-2-yl]imidazo[1,2-b]pyridazin-6-yl}oxy)propan-2-amine]"
137,309,"CC(C)[C@H](N)COc1ccc2ncc(-c3cc4cnccc4o3)n2n1 [Example 30, (2S)-1-{[3-(Furo[3,2-c]pyridin-2-yl)imidazo[1,2-b]pyridazin-6-yl]oxy}-3-methylbutan-2-amine]"
5,13,"CCNc1nccc2oc(-c3cnc4ccc(OC[C@H](C)N)nn34)cc12 [Example 40, 2-(6-{[(2S)-2-Aminopropyl]oxy}imidazo[1,2-b]pyridazin-3-yl)-N-ethylfuro[3,2-c]pyridin-4-amine]"
23,37,"COc1nccc2oc(-c3cnc4ccc(O[C@H](C)CN)nn34)cc12 [Example 6, (2R)-2-{[3-(4-Methoxyfuro[3,2-c]pyridin-2-yl)imidazo[1,2-b]pyridazin-6-yl]-oxy}propan-1-amine]"
100,216,"C[C@@H](N)COc1ccc2ncc(-c3cc4cnccc4o3)n2n1 [Example 26, (2R)-1-{[3-(Furo[3,2-c]pyridin-2-yl)imidazo[1,2-b]pyridazin-6-yl]oxy}propan-2-amine]"
21,44,"N[C@H]1C[C@H](Oc2ccc3ncc(-c4cc5c(O)nccc5o4)n3n2)C1 [Example 35, 2-{6-[(trans-3-Aminocyclobutyl)oxy]imidazo[1,2-b]pyridazin-3-yl}furo[3,2-c]-pyridin-4-ol]"
11,27,"COc1nccc2oc(-c3cnc4ccc(OC[C@@H](C)N)nn34)cc12 [Example 3, (2R)-1-{[3-(4-Methoxyfuro[3,2-c]pyridin-2-yl)imidazo[1,2-b]pyridazin-6-yl]-oxy}propan-2-amine]"
14,37,"CCOc1nccc2oc(-c3cnc4ccc(OC[C@H](C)N)nn34)cc12 [Example 32, (2S)-1-{[3-(4-Ethoxyfuro[3,2-c]pyridin-2-yl)imidazo[1,2-b]pyridazin-6-yl]oxy}-propan-2-amine]"
67,127,"C[C@@H](N)COc1ccc2ncc(-c3cc4ncccc4o3)n2n1 [Example 17, (2R)-{[3-(Furo[3,2-b]pyridin-2-yl)imidazo[1,2-b]pyridazin-6-yl]oxy}propan-2-amine]"
8,16,"N[C@H]1C[C@H](Oc2ccc3ncc(-c4cc5cnccc5o4)n3n2)C1 [Example 29, trans-3-{[3-(Furo[3,2-c]pyridin-2-yl)imidazo[1,2-b]pyridazin-6-yl]oxy}cyclobutanamine]"
–,26,"C[C@@H](N)COc1ccc2ncc(-c3cc4c(OC5CCC5)nccc4o3)n2n1 [Example 42, (2R)-1-({3-[4-(Cyclobutyloxy)furo[3,2-c]pyridin-2-yl]imidazo[1,2-b]pyridazin-6-yl}oxy)propan-2-amine]"

# From patent US9643974B2, “Amino-substituted imidazopyridazines” (Bayer Intellectual Property GmbH, priority 2011, dated 2017)
